Data reported in patent US20240059700A1, “NOVEL DIACYLGLYCERIDE O-ACYLTRANSFERASE 2 INHIBITORS” (Merck Sharp & Dohme LLC, priority 2020, published 2024).

Biological target: human DGAT2 (hDGAT2) (Homo sapiens (Human), UniProt Q96PD7)
Assay: DGAT2 Enzymatic Activity Assay
Format: biochemical
Conditions: membrane prep of Sf-9 insect cells expressing hDGAT2; 13C18-triolein product by LC/MS/MS
Experimental: Sf-9 insect cells were maintained in Grace's insect cell culture medium with 10% heated-inactivated fetal bovine serum, 1% Pluronic F-68 and 0.14 μg/ml Kanamycine sulfate at 27° C. in a shaker incubator. After infection with untagged baculovirus expressing human DGAT2 (hDGAT2) at multiplicity of infection (MOI) 3 for 48 hours, cells were harvested. Cell pellets were suspended in buffer containing 10 mM Tris-HCl pH 7.5, 1 mM EDTA, 250 mM sucrose and Complete Protease Inhibitor Cocktail (Sigma Aldrich), and sonicated on ice. Cell debris were removed by centrifugation at 2000×g for 15 minutes. Membrane fractions were isolated by ultracentrifugation (100,000×g), resuspended in the same buffer, and frozen (−80° C.) for later use. The protein concentration was determined with the Pierce™ BCA Protein Assay Kit (Thermo Fisher Scientific). Expression of protein levels was analyzed by immunoblotting with rabbit anti-DGAT2 antibody (Abcam, ab102831) and donkey anti-rabbit IgG H&L Alexa Fluor® 647 (Abcam, ab150075) followed by detection using Typhoon FLA9000 (GE Healthcare).
LC/MS/MS analyses were performed using Thermal Fisher's LX4-TSQ Vantage system. This system consists of an Agilent binary high-performance liquid chromatography (HPLC) pumps and a TSQ Vantage triple quadrupole MS/MS instrument. For each sample, 2 μL samples from the top organic layer of in-plate liquid-liquid extraction were injected onto a Thermo Betabasic C4 column (2.1 mm×20 mm, 5 μm particle size). The samples were then eluted using the following conditions; mobile phase: Isopropanol: acetonitrile/10 mM ammonium formate=50/35/15 (v/v/v), flow rate: 0.8 mL/min, temperature: 25° C. Data was acquired in positive mode using a heated electrospray ionization (HESI) interface. The operational parameters for the TSQ Vantage MS/MS instrument were a spray voltage of 3000 V, capillary temperature of 280° C., vaporizer temperature 400° C., sheath gas 45 arbitrary unit, Aux gas 10 arbitrary units, S-lens 165 and collision gas 1.0 mTorr. […] (SRM) chromatograms of ^13C18-triolein (Q1: 920.8>Q3:621.3) and internal standard ^13C21-triolein (Q1: 923.8>Q3:617.3) were collected for 33 sec. The peak area was integrated by Xcalibur Quan software. The ratio between the ^13C18 triolein generated in the reaction and spiked in internal standard ^13C21-triolein was used to generate percentage inhibition and IC50 values. Compound percentage inhibition was calculated by the following formula: Inhibition %=1−[(compound response−low control)/(high control−low control)]×100%. Potent compounds were titrated and IC50 were calculated by 4 parameter sigmoidal curve fitting formula.
DGAT2 activity was determined by measuring the amount of enzymatic product ^13C18-triolein (^13C-1,2,3-Tri(cis-9-octadecenoyl)glycerol) using the membrane prep mentioned above. The assay was carried out in ABgene 384-well assay plates in a final volume of 25 μL at rt. The assay mixture contained the following: assay buffer (100 mM Tris·Cl, pH 7.0, 20 mM MgCl2, 5% ethanol), 25 μM of diolein, 5 μM of ^13C oleoyl-CoA and 8 ng/μL of DGAT2 membrane.

human DGAT2 (hDGAT2), sequence (Q96PD7 whole entry): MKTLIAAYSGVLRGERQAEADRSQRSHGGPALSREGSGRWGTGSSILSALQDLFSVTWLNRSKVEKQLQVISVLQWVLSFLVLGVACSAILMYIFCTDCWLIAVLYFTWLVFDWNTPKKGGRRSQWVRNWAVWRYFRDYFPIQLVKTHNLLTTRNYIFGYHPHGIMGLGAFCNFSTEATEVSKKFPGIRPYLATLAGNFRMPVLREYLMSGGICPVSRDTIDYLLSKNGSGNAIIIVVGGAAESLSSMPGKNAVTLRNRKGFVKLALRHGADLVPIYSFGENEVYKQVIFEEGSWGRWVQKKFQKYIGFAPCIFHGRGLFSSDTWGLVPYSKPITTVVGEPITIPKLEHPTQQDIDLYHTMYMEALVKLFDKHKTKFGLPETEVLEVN

Compound | IC50 [µM]
CC(C)n1nc(-c2cccc(C3(C#N)CC3)c2)c2ncc(C(=O)NC3(C)CS(=O)(=O)C3)cc21 [Example 110, 3-(3-(1-cyanocyclopropyl)phenyl)-1-isopropyl-N-(3-methyl-1,1-dioxidothietan-3-yl)-1H-pyrazolo[4,3-b]pyridine-6-carboxamide] | 1.93
Cn1nccc1-c1nn(C2CCOCC2)c2cc(C(=O)N[C@@]3(C)CCS(=O)(=O)C3)cnc12 [Example 65, N-[(3S)-3-methyl-1,1-dioxo-thiolan-3-yl]-3-(2-methylpyrazol-3-yl)-1-tetrahydropyran-4-yl-pyrazolo[4,3-b]pyridine-6-carboxamide] | 10
Cc1nc2c(-c3nn(C(C)C)c4cc(C(=O)NC5(C)CS(=O)(=O)C5)cnc34)cccc2o1 [Example 123, 1-isopropyl-N-(3-methyl-1,1-dioxidothietan-3-yl)-3-(2-methylbenzo[d]oxazol-4-yl)-1H-pyrazolo[4,3-b]pyridine-6-carboxamide] | 0.487
CC(C)n1nc(-c2cccc(OC(F)F)n2)c2ncc(C(=O)NC3(C)CS(=O)(=O)C3)cc21 [Example 96, 3-[6-(difluoromethoxy)-2-pyridyl]-1-isopropyl-N-(3-methyl-1,1-dioxo-thietan-3-yl)pyrazolo[4,3-b]pyridine-6-carboxamide] | 5.54
CC(C)n1nc(-c2cccc(C3CC3)c2)c2ncc(C(=O)NC3(C)CS(=O)(=O)C3)cc21 [Example 92, 3-(3-cyclopropylphenyl)-1-isopropyl-N-(3-methyl-1,1-dioxidothietan-3-yl)-1H-pyrazolo[4,3-b]pyridine-6-carboxamide] | 0.031
C[C@]1(NC(=O)c2ccc3c(-c4ccccc4Cl)cn(-c4ccc(F)cc4)c3n2)CCS(=O)(=O)C1 [Example 10, (S)-3-(2-chlorophenyl)-1-(4-fluorophenyl)-N-(3-methyl-1,1-dioxidotetrahydrothiophen-3-yl)-1H-pyrrolo[2,3-b]pyridine-6-carboxamide] | 3.7
CC(C(N)=O)n1nc(-c2cc(OC(F)F)ccc2F)c2ncc(C(=O)NC3(C)CS(=O)(=O)C3)cc21 (stereo not drawn) [Example 90, 1-(1-amino-1-oxopropan-2-yl)-3-(5-(difluoromethoxy)-2-fluorophenyl)-N-(3-methyl-1,1-dioxidothietan-3-yl)-1H-pyrazolo[4,3-b]pyridine-6-carboxamide] | 0.48
C[C@]1(NC(=O)c2cc3c(cn2)c(-c2ccccc2Cl)cn3-c2ccc(F)cc2)CCS(=O)(=O)C1 [Example 14, (S)-3-(2-chlorophenyl)-1-(4-fluorophenyl)-N-(3-methyl-1,1-dioxidotetrahydrothiophen-3-yl)-1H-pyrrolo[3,2-c]pyridine-6-carboxamide] | 0.292
CC(C)(C)Cn1nc(-c2cccc(OC(F)F)c2)c2ncc(C(=O)NC3(C)CS(=O)(=O)C3)cc21 [Example 29, 3-(3-(difluoromethoxy)phenyl)-N-(3-methyl-1,1-dioxidothietan-3-yl)-1-neopentyl-1H-pyrazolo[4,3-b]pyridine-6-carboxamide] | 0.388
N[C@@H]1COC[C@H]1NC(=O)c1cnc2c(-c3cccc(OC(F)F)c3)cn(-c3ncc(F)cn3)c2c1 [Example 22, N-((3S,4S)-4-aminotetrahydrofuran-3-yl)-3-(3-(difluoromethoxy)phenyl)-1-(5-fluoropyrimidin-2-yl)-1H-pyrrolo[3,2-b]pyridine-6-carboxamide] | 0.63

Further compounds by falling IC50, results first:

IC50 [µM] | Compound
0.209 | Cc1ncc(OC(F)F)cc1-c1nn(C(C)C)c2cc(C(=O)N[C@]3(C)CS(=O)(=O)C[C@H]3O)cnc12 [Example 56, 3-(5-(difluoromethoxy)-2-methylpyridin-3-yl)-N-((3S,4S)-4-hydroxy-3-methyl-1,1-dioxidotetrahydrothiophen-3-yl)-1-isopropyl-1H-pyrazolo[4,3-b]pyridine-6-carboxamide]
0.177 | CC1(NC(=O)c2cnc3c(-c4cncc(OC(F)F)c4)nn(C4CCOCC4)c3c2)CS(=O)(=O)C1 [Example 64, 3-[5-(difluoromethoxy)-3-pyridyl]-N-(3-methyl-1,1-dioxo-thietan-3-yl)-1-tetrahydropyran-4-yl-pyrazolo[4,3-b]pyridine-6-carboxamide]
0.173 | N[C@@H]1CCC[C@@H]1NC(=O)c1cnc2c(-c3cccc(OC(F)F)c3)cn(-c3ncc(F)cn3)c2c1 [Example 23, N-((1S,2R)-2-aminocyclopentyl)-3-(3-(difluoromethoxy)phenyl)-1-(5-fluoropyrimidin-2-yl)-1H-pyrrolo[3,2-b]pyridine-6-carboxamide]
0.119 | CC(C)n1nc(-c2cccc(F)c2)c2ncc(C(=O)NC3(C)CS(=O)(=O)C3)cc21 [Example 104, 3-(3-fluorophenyl)-1-isopropyl-N-(3-methyl-1,1-dioxo-thietan-3-yl)pyrazolo[4,3-b]pyridine-6-carboxamide]
0.097 | CC(C)n1nc(-c2cccc(OC(F)(F)F)c2)c2ncc(C(=O)NC3(C)CS(=O)(=O)C3)cc21 [Example 119, 1-isopropyl-N-(3-methyl-1,1-dioxidothietan-3-yl)-3-(3-(trifluoromethoxy)phenyl)-1H-pyrazolo[4,3-b]pyridine-6-carboxamide]
0.08 | CC1(NC(=O)c2cnc3c(-c4cccc(OC(F)F)c4)nn(C4CC(O)C4)c3c2)CS(=O)(=O)C1 (stereo not drawn) [Example 88, 3-(3-(difluoromethoxy)phenyl)-1-(3-hydroxycyclobutyl)-N-(3-methyl-1,1-dioxidothietan-3-yl)-1H-pyrazolo[4,3-b]pyridine-6-carboxamide]
0.052 | CC(C)n1nc(-c2cncc(OC(F)F)c2)c2ncc(C(=O)N[C@H]3CCCC[C@@H]3O)cc21 [Example 99, 3-[5-(difluoromethoxy)-3-pyridyl]-N-[(1S,2S)-2-hydroxycyclohexyl]-1-isopropyl-pyrazolo[4,3-b]pyridine-6-carboxamide]
0.046 | CC(C)n1nc(-c2cncc(OC3CC3)c2)c2ncc(C(=O)NC3(C)CS(=O)(=O)C3)cc21 [Example 106, 3-(5-cyclopropoxypyridin-3-yl)-1-isopropyl-N-(3-methyl-1,1-dioxidothietan-3-yl)-1H-pyrazolo[4,3-b]pyridine-6-carboxamide]
0.04 | CC1(NC(=O)c2cnc3c(-c4cccc(OC(F)F)c4)nn(Cc4ccc(F)cc4)c3c2)CS(=O)(=O)C1 [Example 70, 3-(3-(difluoromethoxy)phenyl)-1-(4-fluorobenzyl)-N-(3-methyl-1,1-dioxidothietan-3-yl)-1H-pyrazolo[4,3-b]pyridine-6-carboxamide]
0.017 | CC1(NC(=O)c2cnc3c(-c4cccc(OC(F)F)c4)nn(-c4ncc(F)cn4)c3c2)CS(=O)(=O)C1 [Example 4, 3-(3-(difluoromethoxy)phenyl)-1-(5-fluoropyrimidin-2-yl)-N-(3-methyl-1,1-dioxidothietan-3-yl)-1H-pyrazolo[4,3-b]pyridine-6-carboxamide]
0.0096 | CC(C)n1nc(-c2cc(C3CC3)ccc2F)c2ncc(C(=O)NC3(C)CS(=O)(=O)C3)cc21 [Example 117, 3-(5-cyclopropyl-2-fluorophenyl)-1-isopropyl-N-(3-methyl-1,1-dioxidothietan-3-yl)-1H-pyrazolo[4,3-b]pyridine-6-carboxamide]
0.0072 | CC(C)n1nc(-c2cc(OC(F)F)ccc2Cl)c2ncc(C(=O)NC3(C)CS(=O)(=O)C3)cc21 [Example 120, 3-(2-chloro-5-(difluoromethoxy)phenyl)-1-isopropyl-N-(3-methyl-1,1-dioxidothietan-3-yl)-1H-pyrazolo[4,3-b]pyridine-6-carboxamide]
0.006 | CC(C)(O)Cn1nc(-c2cccc(C3CC3)c2)c2ncc(C(=O)NC3(C)CS(=O)(=O)C3)cc21 [Example 112, 3-(3-cyclopropylphenyl)-1-(2-hydroxy-2-methylpropyl)-N-(3-methyl-1,1-dioxidothietan-3-yl)-1H-pyrazolo[4,3-b]pyridine-6-carboxamide]
0.0052 | CC(C)n1nc(-c2cccc(OC(F)F)c2)c2ccc(C(=O)NC3(C)CS(=O)(=O)C3)c(F)c21 [Example 34, 3-(3-(difluoromethoxy)phenyl)-7-fluoro-1-isopropyl-N-(3-methyl-1,1-dioxidothietan-3-yl)-1H-indazole-6-carboxamide]
